# Target: T1, NAMPT (Homo sapiens, UniProt P43490)
# T1 construct: purchased Abcam ab221819
# Test: NAMPT Activity Assay (Abcam #ab221819)
# Format: biochemical
# Conditions: purified NAMPT, percent inhibition from OD450 nm; compound concentration not given
# How it was run: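 Purified NAMPT preincubated with compound and Reaction Mix #1 at 30*C for 1 hr in a two-step colorimetric kit, followed by Reaction Mix #2. Absorbance at OD450 nm recorded over 5 minutes; percent inhibition relative to no-drug wells.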
# T1 sequence (P43490 whole entry): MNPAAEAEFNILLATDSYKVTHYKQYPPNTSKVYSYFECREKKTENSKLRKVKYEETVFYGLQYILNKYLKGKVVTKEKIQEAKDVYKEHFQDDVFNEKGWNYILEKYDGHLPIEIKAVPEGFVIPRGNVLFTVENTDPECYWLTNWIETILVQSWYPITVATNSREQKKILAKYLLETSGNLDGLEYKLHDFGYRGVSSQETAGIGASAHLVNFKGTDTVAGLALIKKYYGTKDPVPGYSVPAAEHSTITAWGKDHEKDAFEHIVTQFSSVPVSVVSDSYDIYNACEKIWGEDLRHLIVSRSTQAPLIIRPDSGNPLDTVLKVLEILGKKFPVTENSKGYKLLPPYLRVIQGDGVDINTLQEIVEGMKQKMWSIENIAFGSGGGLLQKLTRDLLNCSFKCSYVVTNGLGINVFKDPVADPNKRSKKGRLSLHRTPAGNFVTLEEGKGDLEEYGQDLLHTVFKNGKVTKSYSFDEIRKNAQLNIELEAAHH
row,Compound,NAMPT Inhibition Code*
1,"CC(=O)N(CC1CC1)c1ccc(-c2ccc(C(=O)NCc3ccc[nH]3)cn2)cc1Cl [I-T2121, 6-[4-[Acetyl(cyclopropylmethyl)amino]-3-chloro-phenyl]-N-(1H-pyrrol-2-ylmethyl)pyridine-3-carboxamide]",B (B = >33 to <66% inhibition)
2,"CC(=O)N(CC1CC1)c1ccc(-c2ccc(NC(=O)CC3CCCCC3)cn2)cc1Cl [I-T2394, N-[6-[4-[acetyl(cyclopropylmethyl)amino]-3-chloro-phenyl]-3-pyridyl]-2-cyclohexyl-acetamide]",A (*A = <33% inhibition)
3,"CC(=O)N(CC1CC1)c1ccc(-c2ccc(NC(=O)Cc3cccnc3Cl)cn2)cc1Cl [I-T2392, N-[6-[4-[acetyl(cyclopropylmethyl)amino]-3-chloro-phenyl]-3-pyridyl]-2-(2-chloro-3-pyridyl)acetamide]",A (*A = <33% inhibition)
4,"CC(=O)N(CC1CC1)c1ccc(-c2ccc(C(=O)NCc3ccsc3)cn2)cc1Cl [I-T2149, 6-[4-[Acetyl(cyclopropylmethyl)amino]-3-chloro-phenyl]-N-(3-thienylmethyl)pyridine-3-carboxamide]",B (B = >33 to <66% inhibition)
5,"CC(=O)N(CC1CC1)c1ccc(-c2ccc(NC(=O)COc3cccnc3)cn2)cc1Cl [I-T2119, N-[6-[4-[acetyl(cyclopropylmethyl)amino]-3-chloro-phenyl]-3-pyridyl]-2-(3-pyridyloxy)-acetamide]",C (C = ≥66% inhibition)
6,"CC(=O)N(CC1CC1)c1ccc(-c2ccc(C(=O)NCCc3c[nH]cn3)cn2)cc1Cl [I-T2150, 6-[4-[Acetyl(cyclopropylmethyl)amino]-3-chloro-phenyl]-N-[2-(1H-imidazol-4-yl)ethyl]pyridine-3-carboxamide]",C (C = ≥66% inhibition)
7,"CC(=O)N(CC1CC1)c1ccc(-c2ccc(C(=O)NCc3cccc(F)c3)cn2)cc1Cl [I-T2341, 6-[4-[acetyl(cyclopropylmethyl)amino]-3-chloro-phenyl]-N-[(3-fluorophenyl)methyl]pyridine-3-carboxamide]",C (C = ≥66% inhibition)
8,"CC(=O)N(CC1CC1)c1ccc(-c2ccc(C(=O)NCCc3cccnc3)cn2)cc1C#N [I-T2305, 6-[4-[Acetyl(cyclopropylmethyl)amino]-3-cyano-phenyl]-N-[2-(3-pyridyl)ethyl]pyridine-3-carboxamide]",C (C = ≥66% inhibition)
9,"CC(=O)N(CC1CC1)c1ccc(-c2ccc(NC(=O)Cc3ccc(Cl)cc3)cn2)cc1Cl [I-T2393, N-[6-[4-[acetyl(cyclopropylmethyl)amino]-3-chloro-phenyl]-3-pyridyl]-2-(4-chlorophenyl)acetamide]",C (C = ≥66% inhibition)
10,"CC(=O)N(CC1CC1)c1ccc(-c2ccc(C(=O)NC3Cc4ccc(Br)cc4C3)cn2)cc1Cl (stereo not shown) [I-T2153, 6-[4-[Acetyl(cyclopropylmethyl)amino]-3-chloro-phenyl]-N-(5-bromoindan-2-yl)pyridine-3-carboxamide]",A (*A = <33% inhibition)

# From US20240376074A1, “NAMPT INHIBITORS AND USES THEREOF” (Remedy Plan, Inc., priority 2021, published 2024)
